Experimental data from patent US20260327224A1, “SUBSTITUTED PYRIDOTRIAZOLE COMPOUND, AND PREPARATION METHOD THEREFOR AND USE THEREOF” (ORIGIANT PHARMACEUTICAL CO., LTD., priority 2023, published 2026).

Test system: HT-29 cells (colon cancer cells)
Assay: In vitro assay for protection of HT-29 cells from necroptosis (TNFα/Smac mimetic/Z-VAD-FMK, CCK-8)
Type: cell-based
Conditions: Homo sapiens, Protective Activity Against Necroptosis, TNFα/Smac mimetic/Z-VAD-FMK induced, 24 h
Source text: Z′=1−3(SDmin+SDmax)/(AVEmax−AVEmin) • wherein: • Min is the positive control Data, and Max is the negative control DMSO Data. • SD is the standard deviation, and AVE is the average. In Vitro Assay for Protection of HT-29 Cells from Necroptosis:
1) Experimental Materials
DMEM medium was purchased from Gibco; penicillin-streptomycin was purchased from Hyclone; TNFα was purchased from Peprotech; Smac mimetic and Z-VAD-FMK were purchased from Selleck; and CCK-8 was purchased from Medchem Express.
HT-29 cells (colon cancer cells) were cultured in DMEM+10% FBS+penicillin/streptomycin. For the experiment, HT-29 cells in the logarithmic phase were collected and seeded into 96-well plates at a specific density (typically 8×10^3 cells/well for adherent cells). The cells were cultured overnight in an incubator at 37° C. with 5% CO2. On the following day, the test compound was diluted with culture medium to the corresponding concentrations and added into the 96-well plate, with 3 replicate wells for each sample. A solvent control group and a blank control group containing only culture medium were set simultaneously. The spiked cells were induced with a combination of TNFα/Smac mimetic/Z-VAD-FMK for 24 h. Subsequently, 10 μL of CCK8 solution was added to each well, and the cells were incubated in an incubator for 1-3 h. Absorbance was measured at […] using a microplate reader, and the cell necrosis protection rate of the drug was calculated using the following formula:
Cell necrosis protection rate=[(X−C0)/(C−C0)]×100% • where C, C0, and X represent the average absorbance values of the solvent control group, the blank control group, and the drug treatment group, respectively. Finally, a cell viability curve was fitted using Graphpad Prism 5.0 software, and the EC50 value of the test compound for inhibiting necroptosis was calculated.

SMILES | EC50 [nM]
Cn1cc(C(=O)N2CCC[C@H]2c2ccc(F)cc2)c2cc(-c3ccn4nc(NC(=O)N5CCOCC5)nc4c3)ccc21 [Compound 153] | < 1
C[C@H](NC(=O)c1cn(C)c2ccc(-c3ccn4nc(NC(=O)CN5CC[C@@H](F)C5)nc4c3)cc12)c1ccc(F)cc1 [Compound 20] | < 1
C[C@H](NC(=O)c1cn(C)c2ccc(-c3ccn4nc(NC(=O)CN5CCS(=O)(=O)CC5)nc4c3)cc12)c1ccc(F)cc1 [Compound 28] | 1 to 10
Cn1cc(C(=O)Nc2nc3cc(-c4ccc5c(c4)c(C(=O)N[C@@H](CF)c4ccc(F)cc4)nn5C)ccn3n2)cn1 [Compound 187] | < 1
C[C@H](NC(=O)c1cn(C)c2ccc(-c3ccn4nc(NC(=O)c5cnn(C)c5)nc4c3)cc12)C(C)(C)C [Compound 91] | 1000 to 10000
Cn1cc(C(=O)N2N=CCC2c2ccc(F)cc2)c2cc(-c3ccn4nc(NC(=O)N5CCOCC5)nc4c3)ccc21 (stereo not shown) [Compound 172] | 1 to 10
CCn1cc(C(=O)N[C@@H](CF)c2ccc(F)cc2)c2cc(-c3ccn4nc(NC(=O)N5CCOCC5)nc4c3)ccc21 [Compound 200] | < 1
C[C@H](NC(=O)c1cn(C)c2ccc(-c3ccn4nc(NC(=O)[C@@H]5CCC(=O)N5)nc4c3)cc12)c1ccc(F)cc1 [Compound 14] | < 1
C[C@H](NC(=O)c1cn(C)c2ccc(-c3ccn4nc(NC(=O)CN5CC[C@H](CO)C5)nc4c3)cc12)c1ccc(F)cc1 [Compound 61] | 1 to 10
CC(C(=O)Nc1nn(C)c2ccc(-c3ccn4nc(NC(=O)C5CC5)nc4c3)cc12)c1ccc(F)cc1 (stereo not shown) [Compound 182] | 10 to 100
C[C@H](NC(=O)c1cn(C)c2ccc(-c3ccn4nc(NC(=O)CN(C)C)nc4c3)cc12)c1ccc(Cl)cc1 [Compound 78] | < 1
Cn1cc(C(=O)N2N=CCC2c2ccc(F)cc2)c2cc(-c3ccn4nc(NC(=O)C5CC5)nc4c3)ccc21 (stereo not shown) [Compound 170] | < 1
C[C@H](NC(=O)c1cn(C)c2ccc(-c3ccn4nc(NC(=O)CN5CCC(O)CC5)nc4c3)cc12)c1ccc(F)cc1 [Compound 6] | < 1
COCC(=O)Nc1nc2cc(-c3ccc4c(c3)c(C(=O)N[C@H](c3ccc(F)cc3)C(F)F)cn4C)ccn2n1 [Compound 166] | < 1
CCn1cc(C(=O)N[C@@H](C)c2ccc(F)cc2)c2cc(-c3ccn4nc(NC(=O)CN5CCOCC5)nc4c3)ccc21 [Compound 8] | < 1
CO[C@@H](C)C(=O)Nc1nc2cc(-c3ccc4c(c3)c(C(=O)N[C@H](c3ccc(F)cc3)C(F)F)cn4C)ccn2n1 [Compound 165] | < 1
C[C@H](NC(=O)c1cn(C)c2ccc(-c3ccn4nc(NC(=O)CNC5CCOC5)nc4c3)cc12)c1ccc(F)cc1 (stereo partly shown) [Compound 77] | < 1
CC(=O)Nc1nc2cc(-c3ccc4c(c3)c(C(=O)N[C@H]3CCc5cc(C#N)ccc53)cn4C)ccn2n1 [Compound 132] | 100 to 1000
C[C@H](NC(=O)c1cn(C)c2ccc(-c3ccn4nc(NC(=O)CN5CC6CC5CO6)nc4c3)cc12)c1ccc(Cl)cc1 (stereo partly shown) [Compound 79] | < 1
C[C@H](NC(=O)c1cn(C)c2ccc(-c3ccn4nc(NC(=O)CN5CCOCC5)nc4c3)cc12)c1ccc(F)cc1 [Compound 75] | < 1
C[C@H](NC(=O)c1cn(C)c2ccc(-c3ccn4nc(NC(=O)CN5CCC(F)(F)CC5)nc4c3)cc12)c1ccc(F)cc1 [Compound 47] | < 1
C[C@H](NC(=O)c1cn(C)c2ccc(-c3ccn4nc(NC(=O)CN5CCCOCC5)nc4c3)cc12)c1ccc(F)cc1 [Compound 30] | < 1
Cn1cc(C(=O)N2CC(F)(F)CC2c2ccc(F)cc2)c2cc(-c3ccn4nc(NC(=O)N5CCOCC5)nc4c3)ccc21 (stereo not shown) [Compound 160] | < 1
Cn1cc(C(=O)Nc2nc3cc(-c4ccc5c(c4)c(C(=O)N[C@@H](CF)c4cccc(F)c4)cn5C)ccn3n2)cn1 [Compound 155] | < 1
C[C@H](NC(=O)c1cn(C)c2ccc(-c3ccn4nc(NC(=O)Cn5cncn5)nc4c3)cc12)c1ccc(F)cc1 [Compound 57] | 10 to 100
